Source: the supplement of paper PMC10307832

How the values were obtained:
Experiment in all cases: relative viability (nuclei count vs DMSO), 5 days (fraction); higher = more cells survive
CAP-232 + Luminespib = compound: C[C@H]([C@@H](C(=O)N)NC(=O)[C@@H]1CSSC[C@@H](C(=O)N[C@H](C(=O)N[C@@H](C(=O)N[C@H](C(=O)N1)CCCCN)CC2=CNC3=CC=CC=C32)CC4=CC=C(C=C4)O)NC(=O)[C@@H](CC5=CC=CC=C5)N)O [CAP-232] + CCNC(=O)c1noc(-c2cc(C(C)C)c(O)cc2O)c1-c1ccc(CN2CCOCC2)cc1 [Luminespib] (partner 0.01 µM)
How it was run: (§1)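 Relative viability is defined as nuclei in treated wells over nuclei in vehicle wells. Duplicate plates were run and medians reported. Lung cancer cell lines in 1536-well plates were dosed by pin tool one day after seeding, with one drug or with a fixed anchor-drug dose plus five library-drug doses (not always all listed) in √10 steps, and nuclei were counted after 5 days.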

CAP-232 + Vorinostat = compound: C[C@H]([C@@H](C(=O)N)NC(=O)[C@@H]1CSSC[C@@H](C(=O)N[C@H](C(=O)N[C@@H](C(=O)N[C@H](C(=O)N1)CCCCN)CC2=CNC3=CC=CC=C32)CC4=CC=C(C=C4)O)NC(=O)[C@@H](CC5=CC=CC=C5)N)O [CAP-232] + O=C(CCCCCCC(=O)Nc1ccccc1)NO [Vorinostat] (partner 1 µM)
How it was run: as §1

CAP-232 + Foretinib = compound: C[C@H]([C@@H](C(=O)N)NC(=O)[C@@H]1CSSC[C@@H](C(=O)N[C@H](C(=O)N[C@@H](C(=O)N[C@H](C(=O)N1)CCCCN)CC2=CNC3=CC=CC=C32)CC4=CC=C(C=C4)O)NC(=O)[C@@H](CC5=CC=CC=C5)N)O [CAP-232] + COc1cc2c(Oc3ccc(NC(=O)C4(C(=O)Nc5ccc(F)cc5)CC4)cc3F)ccnc2cc1OCCCN1CCOCC1 [Foretinib] (partner 0.25 µM)
How it was run: as §1

CAP-232 + Tozasertib = compound: C[C@H]([C@@H](C(=O)N)NC(=O)[C@@H]1CSSC[C@@H](C(=O)N[C@H](C(=O)N[C@@H](C(=O)N[C@H](C(=O)N1)CCCCN)CC2=CNC3=CC=CC=C32)CC4=CC=C(C=C4)O)NC(=O)[C@@H](CC5=CC=CC=C5)N)O [CAP-232] + Cc1cc(Nc2cc(N3CCN(C)CC3)nc(Sc3ccc(NC(=O)C4CC4)cc3)n2)n[nH]1 [Tozasertib] (partner 0.1 µM)
How it was run: as §1

CAP-232 + Bortezomib = compound: C[C@H]([C@@H](C(=O)N)NC(=O)[C@@H]1CSSC[C@@H](C(=O)N[C@H](C(=O)N[C@@H](C(=O)N[C@H](C(=O)N1)CCCCN)CC2=CNC3=CC=CC=C32)CC4=CC=C(C=C4)O)NC(=O)[C@@H](CC5=CC=CC=C5)N)O [CAP-232] + CC(C)C[C@H](NC(=O)[C@H](Cc1ccccc1)NC(=O)c1cnccn1)B(O)O [Bortezomib] (partner 0.002 µM)
How it was run: as §1

Cell Line	relative viability (CAP-232 + Luminespib; first compound 0.4 µM)	relative viability (CAP-232 + Luminespib; first compound 1.265 µM)	relative viability (CAP-232 + Luminespib; first compound 4 µM)	relative viability (CAP-232 + Luminespib; first compound 12.65 µM)	relative viability (CAP-232 + Vorinostat; first compound 0.4 µM)	relative viability (CAP-232 + Vorinostat; first compound 1.265 µM)	relative viability (CAP-232 + Vorinostat; first compound 4 µM)	relative viability (CAP-232 + Vorinostat; first compound 12.65 µM)	relative viability (CAP-232 + Foretinib; first compound 0.4 µM)	relative viability (CAP-232 + Foretinib; first compound 1.265 µM)	relative viability (CAP-232 + Foretinib; first compound 4 µM)	relative viability (CAP-232 + Foretinib; first compound 12.65 µM)	relative viability (CAP-232 + Tozasertib; first compound 0.4 µM)	relative viability (CAP-232 + Tozasertib; first compound 1.265 µM)	relative viability (CAP-232 + Tozasertib; first compound 4 µM)	relative viability (CAP-232 + Tozasertib; first compound 12.65 µM)	relative viability (CAP-232 + Bortezomib; first compound 0.4 µM)	relative viability (CAP-232 + Bortezomib; first compound 1.265 µM)	relative viability (CAP-232 + Bortezomib; first compound 4 µM)	relative viability (CAP-232 + Bortezomib; first compound 12.65 µM)
LC-2-ad	1.03	1.07	0.965	0.561	0.734	0.753	0.723	0.698	0.875	0.878	0.894	0.524	0.518	0.478	0.439	0.267	1.05	1.01	1.11	1
LCLC-97TM1	0.799	0.819	0.804	0.799	0.876	0.764	1.08	0.995	0.879	0.9	1.01	0.925	0.22	0.189	0.204	0.194	0.83	0.765	0.856	0.555
LCLC-103H	1.04	0.989	0.902	1.07	0.875	0.729	0.827	0.825	0.838	0.735	0.802	0.827	0.544	0.47	0.479	0.572	1.33	0.927	1.16	1
LOU-NH91	0.335	0.271	0.341	0.326	1.02	0.882	0.931	0.415	0.994	0.903	0.86	0.919	0.574	0.68	0.618	0.511	0.528	0.458	0.463	0.549
LU99A	0.333	0.267	0.182	0.246	0.533	0.492	0.589	0.533	0.811	0.787	0.977	0.736	0.253	0.263	0.296	0.287	1.14	1.1	1.18	1.05
LXF-289	0.787	0.642	0.581	0.775	0.89	0.785	0.772	0.774	0.985	0.965	1.01	0.995	0.206	0.176	0.213	0.149	1.06	0.976	0.975	1
NCI-H23	0.218	0.196	0.197	0.119	0.578	0.534	0.558	0.54	0.926	0.883	0.718	0.802	0.416	0.386	0.384	0.309	1.15	1.03	1.06	0.953
NCI-H322M	0.686	0.832	0.809	0.565	0.91	0.894	0.932	1.11	1.05	0.962	0.952	0.985	0.448	0.5	0.515	0.498	1.53	1.2	1.14	1.28
NCI-H441	0.388	0.329	0.382	0.382	0.879	0.824	0.936	0.77	0.895	1.03	0.7	1.07	0.628	0.58	0.571	0.653	0.429	0.357	0.392	0.436
NCI-H460	0.0294	0.0314	0.0247	0.0208	1.01	0.865	1.1	0.363	1.02	1.1	1.22	0.622	0.487	0.463	0.634	0.396	1.49	1.17	1.22	0.812
NCI-H520	0.22	0.206	0.184	0.208	0.71	0.695	0.75	0.577	0.734	0.98	0.92	0.47	0.439	0.405	0.395	0.354	0.71	0.508	0.611	0.438
NCI-H596	1.03	1.03	0.988	0.901	0.666	0.613	0.582	0.53	0.863	0.739	0.985	0.827	0.962	1.04	0.886	0.821	1.14	1.2	0.701	0.925
NCI-H647	0.12	0.114	0.211	0.203	0.541	0.593	0.602	0.414	1.15	1.06	1.36	0.749	0.216	0.259	0.269	0.276	0.938	0.807	0.931	0.562
NCI-H650	0.735	0.824	0.674	0.721	0.505	0.423	0.364	0.457	1.01	1	0.969	0.926	0.749	0.747	0.713	0.7	0.999	0.754	0.792	0.769
